Reference: patent US20030229053A1, “Compounds and methods for the treatment or prevention of flavivirus infections” (Shire BioChem Inc., priority 2001, published 2003)

Biological target: HCV NS5B RNA-dependent RNA polymerase (Hepatitis C virus genotype 1b, UniProt P26663)
Assay: In vitro RNA-dependent RNA polymerase assay (Assay 1), polyA/oligo dT, TCA precipitation
Format: biochemical
Details: not given
In short: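 Purified NS5B (200 ng) on annealed polyA/oligo dT15 in 20 mM Tris-HCl pH 7.5, 50 mM NaCl, 5 mM MgCl2, 1 mM DTT, 15 µM cold UTP plus [32P]-UTP, 2 h at 22°C. Product TCA-precipitated, filtered onto glass-fibre and counted by liquid scintillation.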

HCV NS5B RNA-dependent RNA polymerase, sequence (P26663 2420-3010 limits assumed): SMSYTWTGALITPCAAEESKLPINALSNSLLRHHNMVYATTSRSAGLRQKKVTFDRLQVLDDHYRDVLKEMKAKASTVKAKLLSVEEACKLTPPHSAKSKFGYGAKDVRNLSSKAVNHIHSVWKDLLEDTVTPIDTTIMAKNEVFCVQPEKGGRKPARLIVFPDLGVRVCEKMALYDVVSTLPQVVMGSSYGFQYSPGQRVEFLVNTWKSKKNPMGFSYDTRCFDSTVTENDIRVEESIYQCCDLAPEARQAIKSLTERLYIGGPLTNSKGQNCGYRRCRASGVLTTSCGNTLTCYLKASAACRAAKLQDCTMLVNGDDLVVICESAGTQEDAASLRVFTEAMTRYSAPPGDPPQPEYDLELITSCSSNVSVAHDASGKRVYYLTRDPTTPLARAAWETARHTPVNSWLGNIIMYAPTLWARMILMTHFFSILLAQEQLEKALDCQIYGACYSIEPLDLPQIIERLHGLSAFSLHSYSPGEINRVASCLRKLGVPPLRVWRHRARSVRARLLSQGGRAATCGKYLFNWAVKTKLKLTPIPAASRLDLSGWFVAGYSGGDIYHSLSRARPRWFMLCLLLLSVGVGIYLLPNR

Row | Structure (SMILES) | IC50 [µM]
1 | O=C(O)[C@H](Cc1ccccc1)N(Cc1ccc(Br)s1)C(=O)c1ccc(Cl)cc1Cl [compound #82, (2s)-2-[(5-Bromo-thiophen-2-ylmethyl)-(2,4-dichloro-benzoyl)-amino]-3-phenyl-propionic acid] | < 5
2 | O=C(O)[C@H](Cc1ccccc1)N(Cc1ccc(-c2cc3ccccc3o2)s1)C(=O)c1ccc(Cl)cc1Cl [compound #85, (2s)-2-[(5-Benzofuran-2-yl-thiophen-2-ylmethyl)-(2,4-dichloro-benzoyl)-amino]-3-phenyl-propionic acid] | < 5

Same assay, conditions: polyA/oligo dT template/primer, 200 ng NS5B, 2 h at 22° C.; read-out: RNA pol Assay 1 IC50 (μm)

Row | Structure (SMILES) | IC50 [µM]
3 | O=C(O)c1ccc(-c2ccc(CN(C(=O)c3ccc(Cl)cc3Cl)[C@@H](Cc3ccccc3)C(=O)O)o2)cc1 [compound #77, (2s)-4-(5-{[(1s-1-Carboxy-2-phenyl-ethyl)-(2,4-dichloro-benzoyl)-amino]-methyl}-furan-2-yl)-benzoic acid] | < 5
4 | O=C(O)[C@H](Cc1ccccc1)N(Cc1ccc(-c2cccc(C(F)(F)F)c2)o1)C(=O)c1ccc(Cl)cc1Br [compound #78, (2s)-2-{(2-Bromo-4-chloro-benzoyl)-[5-(3-trifluoromethyl-phenyl)-furan-2-ylmethyl]-amino}-3-phenyl-propionic acid] | < 5
5 | O=C(O)[C@H](Cc1ccccc1)N(Cc1ccc(-c2cc(F)cc(F)c2)o1)C(=O)c1ccc(Cl)cc1Cl [compound #79, (2s)-2-{(2,4-Dichloro-benzoyl)-[5-(3,5-difluoro-phenyl)-furan-2-ylmethyl]-amino}-3-phenyl-propionic acid] | < 5
6 | Cc1cccc(-c2ccc(CN(C(=O)c3ccc(Cl)cc3Cl)[C@@H](Cc3ccccc3)C(=O)O)o2)c1 [compound #80, (2s)-2-[(2,4-Dichloro-benzoyl)-(5-m-tolyl-furan-2-ylmethyl)-amino]-3-phenyl-propionic acid] | < 5
7 | O=C(O)[C@H](Cc1ccccc1)N(Cc1ccc(-c2cccc(F)c2)o1)C(=O)c1ccc(Cl)cc1Cl [compound #81, (2s)-2-{(2,4-Dichloro-benzoyl)-[5-(3-fluoro-phenyl)-furan-2-ylmethyl]-amino}-3-phenyl-propionic acid] | < 5
8 | COC(=O)c1ccc(-c2ccc(CN(C(=O)c3ccc(Cl)cc3Cl)[C@@H](Cc3ccccc3)C(=O)O)s2)cc1 [compound #84, (2s)-4-(5-{[(1-Carboxy-2-phenyl-ethyl)-(2,4-dichloro-benzoyl)-amino]-methyl}-thiophen-2-yl)-benzoic acid methyl ester] | < 5
9 | O=C(O)[C@H](Cc1ccccc1)N(Cc1cc(-c2ccc(Cl)c(F)c2)cs1)C(=O)c1ccc(Cl)cc1Cl [compound #88, (2s)-2-[[4-(4-Chloro-3-fluoro-phenyl)-thiophen-2-ylmethyl]-(2,4-dichloro-benzoyl)-amino]-3-phenyl-propionic acid] | < 5
10 | O=C(O)[C@H](Cc1ccccc1)N(Cc1cc(-c2ccc(F)c(Cl)c2)cs1)C(=O)c1ccc(Cl)cc1Cl [compound #89, (2s)-2-[[4-(3-Chloro-4-fluoro-phenyl)-thiophen-2-ylmethyl]-(2,4-dichloro-benzoyl)-amino]-3-phenyl-propionic acid] | < 5
11 | COc1cc(C)c(S(=O)(=O)N(Cc2c(C(=O)c3ccc(Cl)cc3)oc3ccccc23)[C@@H](Cc2ccccc2)C(=O)O)c(C)c1C [compound #105, (2s)-2-[[2-(4-Chloro-benzoyl)-benzofuran-3-ylmethyl]-(4-methoxy-2,3,6-trimethyl-benzenesulfonyl)-amino]-3-phenyl-propionic acid] | 5 to 20
12 | COc1cc(C)c(S(=O)(=O)N(Cc2c(C(F)(F)F)nn(C)c2Oc2ccc(Cl)cc2Cl)[C@@H](Cc2ccccc2)C(=O)O)c(C)c1C [compound #106, (2s)-2-[[5-(2,4-Dichloro-phenoxy)-1-methyl-3-trifluoromethyl-1h-pyrazol-4-ylmethyl]-(4-methoxy-2,3,6-trimethyl-benzenesulfonyl)-amino]-3-phenyl-propionic acid] | 5 to 20
13 | O=C(CN(C(=O)c1ccc(Cl)cc1Cl)[C@@H](Cc1ccccc1)C(=O)O)c1ccc(-c2ccc(Cl)cc2Cl)o1 [compound #107, (2s)-2-((2,4-Dichloro-benzoyl)-{2-[5-(2,4-dichloro-phenyl)-furan-2-yl]-2-oxo-ethyl}-amino)-3-phenyl-propionic acid] | < 5

Second part, the compound after the results:

Row | IC50 [µM] | Structure (SMILES)
14 | < 5 | O=C(O)c1ccc(-c2ccc(CN(C(=O)c3ccc(Cl)cc3Cl)[C@@H](Cc3ccccc3)C(=O)O)s2)cc1 [compound #83, (2s)-4-(5-{[(1s-1-Carboxy-2-phenyl-ethyl)-(2,4-dichloro-benzoyl)-amino]-methyl}-thiophen-2-yl)-benzoic acid]
15 | < 5 | O=C(O)[C@H](Cc1ccccc1)N(Cc1cc(-c2ccc(Cl)c(Cl)c2)cs1)C(=O)c1ccc(Cl)cc1Cl [compound #87, (2s)-2-{(2,4-Dichloro-benzoyl)-[4-(3,4-dichloro-phenyl)-thiophen-2-ylmethyl]-amino}-3-phenyl-propionic acid]
16 | < 5 | O=C(O)[C@H](Cc1ccccc1)N(Cc1cc(-c2ccc(Cl)cc2Cl)cs1)C(=O)c1ccc(Cl)cc1Cl [compound #90, (2s) -2-{(2,4-Dichloro-benzoyl)-[4-(2,4-dichloro-phenyl)-thiophen-2-ylmethyl]-amino}-3-phenyl-propionic acid]
17 | < 5 | O=C(O)[C@H](Cc1ccccc1)N(Cc1ccc(-c2ccc(F)c(Cl)c2)s1)C(=O)c1ccc(Cl)cc1Cl [compound #91, (2s)-2-[[5-(3-Chloro-4-fluoro-phenyl)-thiophen-2-ylmethyl]-(2,4-dichloro-benzoyl)-amino]-3-phenyl-propionic acid]
18 | < 5 | O=C(O)[C@H](Cc1ccccc1)N(Cc1ccc(-c2ccc(Cl)c(F)c2)s1)C(=O)c1ccc(Cl)cc1Cl [compound #92, (2s)-2-[[5-(4-chloro-3-fluoro-phenyl)-thiophen-2-ylmethyl]-(2,4-dichloro-benzoyl)-amino]-3-phenyl-propionic acid]
19 | < 5 | O=C(O)[C@H](Cc1ccccc1)N(Cc1ccc(-c2ccc(Cl)cc2Cl)s1)C(=O)c1ccc(Cl)cc1Cl [compound #93, (2s)-2-{(2,4-Dichloro-benzoyl)-[5-(2,4-dichloro-phenyl)-thiophen-2-ylmethyl]-amino}-3-phenyl-propionic acid]
20 | < 5 | O=C(O)[C@H](Cc1ccccc1)N(Cc1ccc(-c2nccs2)s1)C(=O)c1ccc(Cl)cc1Cl [compound #94, (2s)-2-[(2,4-Dichloro-benzoyl)-(5-thiazol-2-yl-thiophen-2-ylmethyl)-amino]-3-phenyl-propionic acid]
21 | < 5 | O=C(O)[C@H](Cc1ccccc1)N(Cc1ccc(-c2cc(F)cc(F)c2)s1)C(=O)c1ccc(Cl)cc1Cl [compound #95, (2s)-2-{(2,4-Dichloro-benzoyl)-[5-(3,5-difluoro-phenyl)-thiophen-2-ylmethyl]-amino}-3-phenyl-propionic acid]
22 | < 5 | COc1cccc(-c2ccc(CN(C(=O)c3ccc(Cl)cc3Cl)[C@@H](Cc3ccccc3)C(=O)O)s2)c1 [compound #96, (2s)-2-{(2,4-Dichloro-benzoyl)-[5-(3-methoxy-phenyl)-thiophen-2-ylmethyl]-amino}-3-phenyl-propionic acid]
23 | < 5 | O=C(O)[C@H](Cc1ccccc1)N(Cc1ccc(-c2cccc(F)c2)s1)C(=O)c1ccc(Cl)cc1Cl [compound #97, (2s)-2-{(2,4-Dichloro-benzoyl)-[5-(3-fluoro-phenyl)-thiophen-2-ylmethyl]-amino}-3-phenyl-propionic acid]
24 | < 5 | O=C(O)[C@H](Cc1ccccc1)N(Cc1cccs1)C(=O)c1ccc(Cl)cc1Cl [compound #98, (2s)-2-[(2,4-Dichloro-benzoyl)-thiophen-2-ylmethyl-amino]-3-phenyl-propionic acid]
25 | < 5 | O=C(O)[C@H](Cc1ccccc1)N(Cc1cc(Br)cs1)C(=O)c1ccc(Cl)cc1Cl [compound #99, (2s)-2-[(4-Bromo-thiophen-2-ylmethyl)-(2,4-dichloro-benzoyl)-amino]-3-phenyl-propionic acid]
26 | 5 to 20 | O=C(O)[C@H](Cc1ccccc1)N(Cc1cnc(N2CCN(c3ccccc3)CC2)s1)C(=O)c1ccc(Cl)cc1Cl [compound #100, (2s)-2-{(2,4-Dichloro-benzoyl)-[2-(4-phenyl-piperazin-1-yl)-thiazol-5-ylmethyl]-amino}-3-phenyl-propionic acid]
27 | < 5 | O=C(O)[C@H](Cc1ccccc1)N(Cc1cnc(N2CCN(Cc3ccccc3)CC2)s1)C(=O)c1ccc(Cl)cc1Cl [compound #102, (2s)-2-[[2-(4-Benzyl-piperazin-1-yl)-thiazol-5-ylmethyl]-(2,4-dichloro-benzoyl)-amino]-3-phenyl-propionic acid]
28 | < 5 | O=C(O)[C@H](Cc1ccccc1)N(Cc1cnc(N2CCCCC2)s1)C(=O)c1ccc(Cl)cc1Cl [compound #103, (2s)-2-[(2,4-Dichloro-benzoyl)-(2-piperidin-1-yl-thiazol-5-ylmethyl)-amino]-3-phenyl-propionic acid]
29 | < 5 | CCN(CC)c1ncc(CN(C(=O)c2ccc(Cl)cc2Cl)[C@@H](Cc2ccccc2)C(=O)O)s1 [compound #104, (2s)-2-[(2,4-Dichloro-benzoyl)-(2-diethylamino-thiazol-5-ylmethyl)-amino]-3-phenyl-propionic acid]
30 | 5 to 20 | C=CCN(C(=O)c1ccc(Cl)cc1Cl)[C@@H](Cc1ccccc1)C(=O)O [compound #109, (2s)-2-[Allyl-(2,4-dichloro-benzoyl)-amino]-3-phenyl-propionic acid]
31 | 5 to 20 | CN(C(=O)c1ccc(Cl)cc1Cl)[C@@H](Cc1ccccc1)C(=O)O [compound #110, (2s)-2-[(2,4-Dichloro-benzoyl)-methyl-amino]-3-phenyl-propionic acid]
32 | 5 to 20 | C#CCN(C(=O)c1ccc(Cl)cc1Cl)[C@@H](Cc1ccccc1)C(=O)O [compound #111, (2s)-2-[(2,4-Dichloro-benzoyl)-prop-2-ynyl-amino]-3-phenyl-propionic acid]
